Measurements reported in PMC10964431 (European journal of medicinal chemistry, 2024).

Key:
Assay in all cases: Anti-SARS-CoV-2 activity against VOCs, WST-8 assay in VeroE6 cells
Assay type in all cases: cell-based
Settings in all cases: one range stated for beta, gamma and omicron
SARS-CoV-2^TY8 (Beta) = tested on: SARS-CoV-2^TY8 (Beta)
SARS-CoV-2^TY7 (Gamma) = tested on: SARS-CoV-2^TY7 (Gamma)
SARS-CoV-2^929 (Omicron) = tested on: SARS-CoV-2^929 (Omicron)

CC(C)(C)[C@H](NC(=O)C(Cl)(Cl)Cl)C(=O)N1C[C@H]2[C@@H]([C@H]1C(=O)N[C@H](C#N)C[C@@H]1CCCNC1=O)C2(C)C [Compound 5f, (1R,2S,5S)-N-((S)-1-Cyano-2-((S)-2-oxopiperidin-3-yl)ethyl)-3-((S)-3,3-dimethyl-2-(2,2,2-trichloroacetamido)butanoyl)-6,6-dimethyl-3-azabicyclo[3.1.0]hexane-2-carboxamide]
3–5 fold: loss of antiviral activity against beta variant (SARS-CoV-2^TY8 (Beta)) | loss of antiviral activity against gamma variant (SARS-CoV-2^TY7 (Gamma)) | loss of antiviral activity against omicron variant (SARS-CoV-2^929 (Omicron))
